Data published in patent US20160199393A1, “METHODS OF TREATING BRAIN ISCHEMIA OR HYPOXIA” (China Medical University, priority 2015, published 2016).

Assays:
xCT = xCT mRNA and protein levels in homogenised ischemic brain tissue of rats with CIR; type: in vivo, rat; conditions: pretreatment 150 mg/kg, 12 h after reperfusion
Description: Eight to ten-week-old male adult male Sprague-Dawley rats, C57BL/6J mice and xCT^−/− mice were anesthetized with 1.5% isoflurane in oxygen, allowed breathing spontaneously, and body temperature was maintained at 37° C. with a heat lamp during surgery for right middle cerebral artery ligation and bilateral common carotid artery clamping as previously described (Chen S T, Hsu C Y, Hogan E L, Maricq H, Balentine J D. A model of focal ischemic stroke in the rat: reproducible extensive cortical infarction. Stroke; a journal of cerebral circulation. 1986; 17(4):738-43, which is incorporated here by reference). Animals were subjected to transient cerebral ischemia for 90 min in rats and 2 h in mice.
Q-PCR analysis was performed as described previously in Hsieh (Hsieh C H, Kuo J W, Lee Y J, Chang C W, Gelovani Liu R S. Construction of mutant TKGFP for real-time imaging of temporal dynamics of HIF-1 signal transduction activity mediated by hypoxia and reoxygenation in tumors in living mice. J Nucl Med. 2009; 50(12):2049-57, which is incorporated here by reference). […] The cDNA was then used for real time PCR quantification of mRNAs using the gene specific forward and reverse primers. […]
To test this hypothesis, the mRNA and protein levels of xCT in ischemic brains with or without 2-methoxyestradiol (2ME2), an inhibitor of HIF-1, at 12 h after CIR were first determined. […]

mouse xCT promoter = assay: Mouse xCT promoter luciferase reporter assay in neurons and astrocytes; type: cell-based; conditions: 24 h incubation, DFO 100 μM, CoCl2 50 μM
Excerpt: The multiple cloning sites (MCS) of pTA-Luc vector (Clontech) was inserted with the cDNA fragment bearing −2000 to +1 bp mouse or human xCT promoter to drive the expression of firefly luciferase gene as pTA-mxCTp-Luc or pTA-hxCTp-Luc. The mutant of hypoxia response element on mouse or human xCT promoter was generated in the pTA-mxCTp-Luc or pTA-hxCTp-Luc as template by Quick Change Site-directed Mutagenesis Kit (Stratagene).
Cells were cotransfected with xCT promoter-driven reporter constructs with or without HRE mutation and Renilla reporter plasmids. At 24 h after transfection, the luciferase activity was examined by a dual luciferase reporter assay system (Promega) according to the manufacturers instructions, and firefly luciferase activity was normalized to the control renilla activity included in the kit. Luciferase activities are expressed as fold-increase over the luciferase activities in un-stimulated conditions.
To test whether the xCT promoter would respond to HIF activation, the mouse xCT 2000-bp promoter was isolated and fused to firefly luciferase coding sequences for use in transient transfection assays with neurons and astrocytes. Normoxic neurons and astrocytes were treated with OGDR or incubated with desferrioxamine (DFO; 100 μM) or cobalt chloride (CoCl2; 50 μM) for 24 h. The DFO and CoCl2 mimics hypoxia by inducing transcription from HIF-1-dependent genes.

NMDAR [1] = biological target: T1, NMDAR (Mus musculus, UniProt P35438); type: in vivo; conditions: WT and xCT−/− mice with CIR, 12 h after reperfusion, compared to vehicle
T1 construct: from tissue; host or cells: cerebral hemispheres of WT (C57BL/6J) and xCT-/- mice after CIR, in vivo/ex vivo
Description: Animals received 29.6 MBq/kg of ^18F-FSAG in 100 μl of PBS via lateral tail vein injection, and then were euthanized by CO2/O2 asphyxiation at 30 min after injection. After sacrifice, selected tissues of interest were then removed and weighed, and the radioactivity was measured using a γ-counter. The percentage injected dose per gram (% ID/g) was then calculated.
To determine in vivo activation of NMDAR, mice were injected with ^18F-FSAG at 12 h after reperfusion for ex vivo biodistribution studies and positron emission tomography (PET) imaging studies.

NMDAR [2] = conditions: for hyperfunction of NMDAR (binding radioactivity of 18F-FSAG): WT cortical cells, OGDR, 24 h after reperfusion, 10 μM (SAS 500 μM)
SLC7A11 (xCT) mRNA = assay: SLC7A11 mRNA level (Q-PCR) in primary cortical cells exposed to OGDR; type: cell-based, mouse; conditions: pretreatment with YC-1 5 μM
system xc− [3] = biological target: T2, system xc− (Mus musculus, UniProt Q9WTR6); assay: Extracellular glutamate content in WT cortical cells exposed to OGDR; type: cell-based; conditions: 24 h after reperfusion, 10 μM (SAS 500 μM)
T2 construct: endogenous in cells; host or cells: primary cortical cells from E17 wild-type C57BL/6J mouse embryos, exposed to OGDR
T2 sequence (Q9WTR6 1-502): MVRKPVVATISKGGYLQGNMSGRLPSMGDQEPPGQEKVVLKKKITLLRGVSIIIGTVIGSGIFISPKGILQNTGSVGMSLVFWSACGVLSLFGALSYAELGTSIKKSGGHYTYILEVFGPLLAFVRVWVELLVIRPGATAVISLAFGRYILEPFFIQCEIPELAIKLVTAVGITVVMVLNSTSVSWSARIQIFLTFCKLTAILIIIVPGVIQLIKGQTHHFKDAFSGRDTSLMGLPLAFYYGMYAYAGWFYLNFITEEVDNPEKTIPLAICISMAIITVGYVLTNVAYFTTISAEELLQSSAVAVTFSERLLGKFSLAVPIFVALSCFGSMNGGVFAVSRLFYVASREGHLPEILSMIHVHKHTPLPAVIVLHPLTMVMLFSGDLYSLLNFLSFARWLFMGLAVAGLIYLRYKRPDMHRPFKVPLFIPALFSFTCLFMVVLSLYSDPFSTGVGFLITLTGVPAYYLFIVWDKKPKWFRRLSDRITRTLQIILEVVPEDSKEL
T2 sequence (P10852 1-526 partner): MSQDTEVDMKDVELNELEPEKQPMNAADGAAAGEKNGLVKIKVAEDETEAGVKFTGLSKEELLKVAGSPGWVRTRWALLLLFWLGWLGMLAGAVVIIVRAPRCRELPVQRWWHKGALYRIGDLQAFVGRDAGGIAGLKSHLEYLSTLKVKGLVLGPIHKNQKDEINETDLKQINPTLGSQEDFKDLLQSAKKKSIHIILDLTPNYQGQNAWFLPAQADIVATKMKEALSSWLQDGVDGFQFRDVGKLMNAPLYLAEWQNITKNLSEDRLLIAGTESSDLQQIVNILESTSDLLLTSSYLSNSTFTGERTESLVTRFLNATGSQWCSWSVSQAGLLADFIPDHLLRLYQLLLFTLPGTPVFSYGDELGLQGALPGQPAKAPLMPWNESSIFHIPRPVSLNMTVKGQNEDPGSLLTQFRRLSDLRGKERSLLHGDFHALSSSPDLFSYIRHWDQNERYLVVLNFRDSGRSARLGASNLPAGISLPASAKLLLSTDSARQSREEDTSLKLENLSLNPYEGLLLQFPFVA
Description: (§1) Primary cortical cells were prepared from cerebral cortices of wild-type C57BL/6J or homozygote xCT^−/− mouse embryos in embryonic day 17 as previously described with modification (Goldberg M P, Choi D W. Combined oxygen and glucose deprivation in cortical cell culture: calcium-dependent and calcium-independent mechanisms of neuronal injury. The Journal of neuroscience: the official journal of the Society for Neuroscience, 1993; 13(8):3510-24, which is incorporated here by reference).

WT cortical cells = assay: Lactate dehydrogenase (LDH) level in WT cortical cells after OGD/OGDR; type: cell-based, mouse; conditions: OGDR, 24 h after reperfusion, 10 μM (SAS 500 μM)
Description: as §1
The LDH assay was carried out at 24 hours after reperfusion. *P<0.01 compared to drugs-untreated cells (Un), one-way ANOVA. Error bars denote the standard deviation among triplicate experiments.

neurons = assay: Annexin V flow cytometric apoptosis assay after OGDR, neurons; type: cell-based, mouse; conditions: WT cortical cells, 24 h after reperfusion, 10 μM (SAS 500 μM)
Description: (§2) Annexin V staining was performed to determine cell apoptosis using the Annexin V-FITC Apoptosis Detection Kit (Sigma-Aldrich) for 10 min at room temperature according to the manufacturers instructions, and then flow cytometric analysis was performed.
(§3) The three-color staining flow cytometric assay using allophycocyanin-microtubule-associated protein 2 (MAP2) for neuron staining, phycoerythrin (PE)-GFAP for astrocyte staining and FITC-annexin V for apoptotic cell staining was performed to count the numbers of neurons, astrocytes, and apoptotic cells. FIGS. 21A and […] show the results of apoptosis in wild type (WT) and xCT^−/− cortical cells treated with OGDR at 24 h after reperfusion. *P<0.01 compared to WT without OGDR, Student's t-test. ^#P<0.01 compared to WT with OGDR, Student's t-test. From FIGS. 21A and 21B it was observed that that smaller numbers of apoptotic cells were present in xCT^−/− neurons and astrocytes after OGDR treatment.

astrocytes = assay: Annexin V flow cytometric apoptosis assay after OGDR, astrocytes; type: cell-based, mouse; conditions: WT cortical cells, 24 h after reperfusion, 10 μM (SAS 500 μM)
Description: as §2, §3

system xc− [4] = biological target: T3, system xc− (Homo sapiens, UniProt Q9UPY5); conditions: Dixon et al., eLife 2014; cited from earlier work
T3 sequence (Q9UPY5 1-501): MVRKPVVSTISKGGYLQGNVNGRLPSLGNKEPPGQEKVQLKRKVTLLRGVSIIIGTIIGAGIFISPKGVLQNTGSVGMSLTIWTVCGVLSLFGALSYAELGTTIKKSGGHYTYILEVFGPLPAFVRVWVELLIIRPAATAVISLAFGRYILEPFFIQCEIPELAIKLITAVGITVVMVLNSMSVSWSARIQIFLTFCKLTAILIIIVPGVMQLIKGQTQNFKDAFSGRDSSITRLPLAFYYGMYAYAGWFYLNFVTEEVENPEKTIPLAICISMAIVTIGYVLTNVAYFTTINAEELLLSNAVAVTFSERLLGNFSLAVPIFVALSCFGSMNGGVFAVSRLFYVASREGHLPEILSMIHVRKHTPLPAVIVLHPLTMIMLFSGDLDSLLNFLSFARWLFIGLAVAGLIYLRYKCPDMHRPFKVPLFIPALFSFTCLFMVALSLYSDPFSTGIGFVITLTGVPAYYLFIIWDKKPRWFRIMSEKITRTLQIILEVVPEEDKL
T3 sequence (P08195 1-529 partner): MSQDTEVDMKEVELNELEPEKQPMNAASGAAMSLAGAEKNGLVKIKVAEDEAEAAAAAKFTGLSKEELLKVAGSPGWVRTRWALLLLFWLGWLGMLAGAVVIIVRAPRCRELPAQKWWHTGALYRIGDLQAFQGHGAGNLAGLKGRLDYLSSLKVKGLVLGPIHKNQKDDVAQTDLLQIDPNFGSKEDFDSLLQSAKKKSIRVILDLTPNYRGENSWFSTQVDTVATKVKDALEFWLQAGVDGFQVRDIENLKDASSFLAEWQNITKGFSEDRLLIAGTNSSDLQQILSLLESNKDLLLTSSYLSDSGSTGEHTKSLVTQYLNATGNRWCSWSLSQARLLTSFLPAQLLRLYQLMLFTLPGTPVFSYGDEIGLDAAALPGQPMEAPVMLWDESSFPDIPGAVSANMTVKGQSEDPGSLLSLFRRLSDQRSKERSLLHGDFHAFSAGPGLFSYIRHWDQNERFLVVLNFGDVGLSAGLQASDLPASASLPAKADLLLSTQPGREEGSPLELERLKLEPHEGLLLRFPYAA

Q: Which “xCT mRNA expression level” value (xCT) does the source give for COc1cc2c(cc1O)CC[C@@H]1[C@@H]2CC[C@]2(C)[C@@H](O)CC[C@@H]12 [2ME2, 2-methoxyestradiol] here?
A: Its value is “significantly inhibited”.

Q: What about the “xCT protein expression level” value (xCT) of the same compound?
A: The value was “significantly inhibited”.

Q: For [Cl][Co][Cl] [CoCl2, cobalt chloride], which “transcriptional activation of xCT (reporter activity of mouse xCT promoter)” value (mouse xCT promoter) is on record?
A: The value was “increased”.

Q: With CC(=O)N(O)CCCCCNC(=O)CCC(=O)N(O)CCCCCNC(=O)CCC(=O)N(O)CCCCCN [DFO, desferrioxamine] as the compound, how does the “transcriptional activation of xCT (reporter activity of mouse xCT promoter)” value (mouse xCT promoter) read?
A: The value was “increased”.

Q: With C[C@]12N[C@H](Cc3ccccc31)c1ccccc12 [MK801] as the compound, how does the “18F-FSAG accumulation in ipsilateral and contralateral hemispheres” value (NMDAR [1]) read?
A: The value was “significant reduction”.

Q: And the “binding of 18F-FSAG” value (NMDAR [2]; cortical cells, pretreatment 10 μM)?
A: Its value is “blocked”.

Q: Which “OGDR-increased SLC7A11 mRNA expression” value (SLC7A11 (xCT) mRNA) does the source give for OCc1ccc(-c2nn(Cc3ccccc3)c3ccccc23)o1 [YC-1] here?
A: The value was “inhibited”.

Q: Which results are given for CCOc1ccccc1-n1c(C(C)N2CCN(C(=O)COc3ccc(Cl)cc3)CC2)nc2ccccc2c1=O (stereo not drawn) [erastin]?
A: OGDR-induced glutamate release (extracellular glutamate content) (system xc− [3]): inhibited; LDH levels (WT cortical cells): inhibited; apoptosis in neurons (neurons): inhibited; apoptosis in astrocytes (astrocytes): inhibited; hyperfunction of NMDAR (binding radioactivity of 18F-FSAG) (NMDAR [2]): inhibited

Q: With Cc1ccc(NC(=O)c2ccc(CN3CCN(C)CC3)cc2)cc1Nc1nccc(-c2cccnc2)n1 [imatinib] as the compound, how does the “system xc− inhibition activity” value (system xc− [4]) read?
A: The value was “lacking system xc^− inhibition activity”.

Q: With CNC(=O)c1cc(Oc2ccc(NC(=O)Nc3ccc(Cl)c(C(F)(F)F)c3)c(F)c2)ccn1 [regorafenib] as the compound, how does the “OGDR-induced glutamate release (extracellular glutamate content)” value (system xc− [3]) read?
A: The value was “inhibited”.

Q: And the LDH levels (WT cortical cells)?
A: Its LDH levels is “inhibited”.

Q: What about the apoptosis in neurons (neurons) of the same compound?
A: The apoptosis in neurons was “inhibited”.

Q: And the apoptosis in astrocytes (astrocytes)?
A: The apoptosis in astrocytes was “inhibited”.

Q: And the “hyperfunction of NMDAR (binding radioactivity of 18F-FSAG)” value (NMDAR [2])?
A: Its value is “inhibited”.
